Measurements from ChEMBL document CHEMBL1136629, “Amphipathic 3-phenyl-7-propylbenzisoxazoles; human pPaR gamma, delta and alpha agonists” (Bioorg Med Chem Lett, 2003).

What follows are compounds tested against T1, Peroxisome proliferator-activated receptor gamma (Homo sapiens, UniProt P37231) (assay: In vitro binding affinity towards human peroxisome proliferator activated receptor gamma (PPAR gamma)). Details: not given.
T1 sequence (P37231 whole entry): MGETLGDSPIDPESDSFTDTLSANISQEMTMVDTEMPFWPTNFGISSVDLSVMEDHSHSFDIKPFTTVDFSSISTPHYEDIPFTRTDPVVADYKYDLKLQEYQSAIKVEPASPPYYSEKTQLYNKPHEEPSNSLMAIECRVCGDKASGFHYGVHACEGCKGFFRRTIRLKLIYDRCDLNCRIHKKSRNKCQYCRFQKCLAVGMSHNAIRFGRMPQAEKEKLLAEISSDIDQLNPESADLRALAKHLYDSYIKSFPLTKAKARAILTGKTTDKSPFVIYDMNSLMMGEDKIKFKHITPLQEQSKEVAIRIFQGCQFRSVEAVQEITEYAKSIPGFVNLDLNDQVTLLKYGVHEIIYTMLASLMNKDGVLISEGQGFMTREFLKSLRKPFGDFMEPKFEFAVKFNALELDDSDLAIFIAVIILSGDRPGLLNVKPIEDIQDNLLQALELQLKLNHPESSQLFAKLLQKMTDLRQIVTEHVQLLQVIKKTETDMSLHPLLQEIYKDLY

In order of falling Ki:
1. CCCc1c(OCCCOc2ccccc2CCC(=O)O)ccc2c(-c3ccccc3)noc12  1330 nM
2. CCCc1c(OCCOc2ccc(CCCC(=O)O)cc2)ccc2c(-c3ccccc3)noc12  616 nM
3. CCCc1c(OCCCCOc2ccccc2CC(=O)O)ccc2c(-c3ccccc3)noc12  348 nM
4. CCCc1c(OCCCOc2ccc(/C=C/C(=O)O)cc2)ccc2c(-c3ccccc3)noc12  152 nM
5. CCCc1c(OCCCCOc2cccc(CCC(=O)O)c2)ccc2c(-c3ccccc3)noc12  115 nM
6. CCCc1c(OCCCCOc2cccc(C(=O)O)c2)ccc2c(-c3ccccc3)noc12  100 nM
7. CCCc1c(OCCCCOc2ccc(C(C)(C)CC(=O)O)cc2)ccc2c(-c3ccccc3)noc12  52 nM
8. CCCc1c(OCCCCOc2cccc(OC(C)(C)C(=O)O)c2)ccc2c(-c3ccccc3)noc12  41 nM
9. CCCc1c(OCCCOc2ccc(OCC(=O)O)cc2)ccc2c(-c3ccccc3)noc12  34 nM
10. CCCc1c(OCCCCOc2ccc(CC(=O)O)cc2)ccc2c(-c3ccccc3)noc12  30 nM
11. CCCc1c(OCCCCOc2ccc(OC(C)C(=O)O)cc2)ccc2c(-c3ccccc3)noc12 (centres undefined)  20 nM
12. CCCc1c(OCCCCOc2ccc(CC(C)(C)C(=O)O)cc2)ccc2c(-c3ccccc3)noc12  20 nM
13. CCCc1c(OCCCSc2ccc(CC(=O)O)cc2Cl)ccc2c(-c3ccccc3)noc12  11 nM

The compounds below were run against T2, Peroxisome proliferator-activated receptor gamma (Homo sapiens) (UniProt P37231) (assay: Agonistic transcriptional activity in COS1 cells expressing GAL 4-PPAR gamma at 3 uM; Maximal percent). Details: COS-1.
T2 sequence (whole entry): T1 sequence (P37231 whole entry)
Type: functional, cell-based

Compound `CCCc1c(OCCOc2ccc(CCCC(=O)O)cc2)ccc2c(-c3ccccc3)noc12` has an Emax (% of standard agonist) of 72%.

The compounds below were run against T3, Peroxisome proliferator-activated receptor delta (Homo sapiens, UniProt Q03181) (assay: Agonistic activity was determined in COS1 cells transfected with GAL 4-PPAR delta receptor). Details: not given.
T3 sequence (Q03181 whole entry): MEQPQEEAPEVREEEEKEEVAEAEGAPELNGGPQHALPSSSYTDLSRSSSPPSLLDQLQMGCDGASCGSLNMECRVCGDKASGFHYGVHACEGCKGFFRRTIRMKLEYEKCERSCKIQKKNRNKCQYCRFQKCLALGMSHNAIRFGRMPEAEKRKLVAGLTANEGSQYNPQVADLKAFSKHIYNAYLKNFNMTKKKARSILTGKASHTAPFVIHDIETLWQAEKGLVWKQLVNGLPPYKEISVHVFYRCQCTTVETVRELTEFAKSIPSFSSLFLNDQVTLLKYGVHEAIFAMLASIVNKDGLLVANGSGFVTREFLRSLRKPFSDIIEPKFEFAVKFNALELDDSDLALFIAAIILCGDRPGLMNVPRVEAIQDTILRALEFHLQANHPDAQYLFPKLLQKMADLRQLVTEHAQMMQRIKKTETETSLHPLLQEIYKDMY
Type: functional, cell-based, COS-1

In order of falling EC50:
1. CCCc1c(OCCCCOc2ccc(CC(C)(C)C(=O)O)cc2)ccc2c(-c3ccccc3)noc12  860 nM
2. CCCc1c(OCCCOc2ccc(/C=C/C(=O)O)cc2)ccc2c(-c3ccccc3)noc12  148 nM
3. CCCc1c(OCCCOc2ccc(CC(=O)O)cc2)ccc2c(-c3ccccc3)noc12  147 nM
4. CCCc1c(OCCCOc2ccc(OCC(=O)O)cc2)ccc2c(-c3ccccc3)noc12  16 nM
5. CCCc1c(OCCCSc2ccc(CC(=O)O)cc2Cl)ccc2c(-c3ccccc3)noc12  3 nM

Each compound was assayed against T4, Peroxisome proliferator-activated receptor alpha (Homo sapiens, UniProt Q07869) (assay: In vitro binding affinity towards human peroxisome proliferator activated receptor alpha (PPAR alpha)). Details: not given.
T4 sequence (Q07869 whole entry): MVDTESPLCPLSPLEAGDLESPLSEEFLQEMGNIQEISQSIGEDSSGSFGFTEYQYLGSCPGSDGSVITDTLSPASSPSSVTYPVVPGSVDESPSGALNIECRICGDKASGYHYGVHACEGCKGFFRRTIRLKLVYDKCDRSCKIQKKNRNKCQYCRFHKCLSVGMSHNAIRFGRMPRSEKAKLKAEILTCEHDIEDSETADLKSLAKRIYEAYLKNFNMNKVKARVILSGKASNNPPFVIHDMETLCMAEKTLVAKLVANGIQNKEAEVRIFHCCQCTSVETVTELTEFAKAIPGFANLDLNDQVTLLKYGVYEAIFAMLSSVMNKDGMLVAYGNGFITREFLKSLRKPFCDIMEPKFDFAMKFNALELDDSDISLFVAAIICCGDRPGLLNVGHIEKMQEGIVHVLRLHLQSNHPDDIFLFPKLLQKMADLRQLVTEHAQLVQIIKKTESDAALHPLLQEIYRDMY

First: CCCc1c(OCCCOc2ccc(CC(=O)O)cc2)ccc2c(-c3ccccc3)noc12
Second: CCCc1c(OCCCCOc2ccc(CC(=O)O)cc2)ccc2c(-c3ccccc3)noc12
The Ki of the first is 2.3-fold lower: 3 nM for the first, 7 nM for the second.

First: CCCc1c(OCCCCOc2cccc(OC(C)(C)C(=O)O)c2)ccc2c(-c3ccccc3)noc12
Second: CCCc1c(OCCCCOc2cccc(C(=O)O)c2)ccc2c(-c3ccccc3)noc12
The Ki of the first is 49-fold higher: 255 nM for the first, 5.2 nM for the second. The second binds more tightly here.

Compared with `CCCc1c(OCCCSc2ccc(CC(=O)O)cc2Cl)ccc2c(-c3ccccc3)noc12`, `CCCc1c(OCCOc2ccc(CCCC(=O)O)cc2)ccc2c(-c3ccccc3)noc12` is 22-fold higher in Ki: 14 nM for the first, 305 nM for the second. The first binds more tightly here.

First: CCCc1c(OCCCCOc2ccc(OC(C)C(=O)O)cc2)ccc2c(-c3ccccc3)noc12 (centres undefined)
Second: CCCc1c(OCCCOc2ccc(OCC(=O)O)cc2)ccc2c(-c3ccccc3)noc12
The Ki of the first is 5.8-fold higher: 47 nM for the first, 8.1 nM for the second. The second binds more tightly here.

First: CCCc1c(OCCCCOc2ccc(C(C)(C)CC(=O)O)cc2)ccc2c(-c3ccccc3)noc12
Second: CCCc1c(OCCCCOc2ccc(CC(C)(C)C(=O)O)cc2)ccc2c(-c3ccccc3)noc12
The Ki of the first is 16-fold higher: 213 nM for the first, 13 nM for the second. The second binds more tightly here.

Compared with `CCCc1c(OCCCOc2ccc(/C=C/C(=O)O)cc2)ccc2c(-c3ccccc3)noc12`, `CCCc1c(OCCCOc2ccccc2CCC(=O)O)ccc2c(-c3ccccc3)noc12` is higher in Ki: 50 nM for the first, > 33300 nM for the second.

Going from `CCCc1c(OCCCCOc2cccc(CCC(=O)O)c2)ccc2c(-c3ccccc3)noc12` to `CCCc1c(OCCCCOc2ccccc2CC(=O)O)ccc2c(-c3ccccc3)noc12`, the Ki falls from 329 nM to 86 nM (3.8-fold). The second binds more tightly here.

The compounds below were run against T5, Peroxisome proliferator-activated receptor alpha (Homo sapiens) (UniProt Q07869) (assay: Agonistic transcriptional activity in COS1 cells expressing GAL 4-PPAR alpha at 3 uM; Maximal percent). Details: COS-1.
T5 sequence (whole entry): T4 sequence (Q07869 whole entry)
Type: functional, cell-based

In order of falling activation:
1. CCCc1c(OCCCOc2ccc(/C=C/C(=O)O)cc2)ccc2c(-c3ccccc3)noc12  56%
2. CN(CCOc1ccc(CC2SC(=O)NC2=O)cc1)c1ccccn1 (centres undefined)  3%

What follows are compounds tested against T1, Peroxisome proliferator-activated receptor gamma (assay: Agonistic activity was determined in COS1 cells transfected with GAL 4-PPAR gamma receptor). Details: not given.
Type: functional, cell-based, COS-1

In order of rising EC50:
1. CCCc1c(OCCCSc2ccc(CC(=O)O)cc2Cl)ccc2c(-c3ccccc3)noc12  4 nM
2. CCCc1c(OCCCCOc2ccc(OC(C)C(=O)O)cc2)ccc2c(-c3ccccc3)noc12 (centres undefined)  16 nM
3. CCCc1c(OCCCCOc2ccc(CC(C)(C)C(=O)O)cc2)ccc2c(-c3ccccc3)noc12  20 nM
4. CCCc1c(OCCCCOc2ccc(C(C)(C)CC(=O)O)cc2)ccc2c(-c3ccccc3)noc12  37 nM
5. CCCc1c(OCCCCOc2ccc(CC(=O)O)cc2)ccc2c(-c3ccccc3)noc12  60 nM
6. CCCc1c(OCCCOc2ccc(OCC(=O)O)cc2)ccc2c(-c3ccccc3)noc12  75 nM
7. CCCc1c(OCCCCOc2cccc(OC(C)(C)C(=O)O)c2)ccc2c(-c3ccccc3)noc12  100 nM
8. CCCc1c(OCCCCOc2cccc(C(=O)O)c2)ccc2c(-c3ccccc3)noc12  193 nM
9. CCCc1c(OCCCOc2ccc(CC(=O)O)cc2)ccc2c(-c3ccccc3)noc12  194 nM
10. CCCc1c(OCCCOc2ccc(/C=C/C(=O)O)cc2)ccc2c(-c3ccccc3)noc12  254 nM

What follows are compounds tested against T4, Peroxisome proliferator-activated receptor alpha (assay: Agonistic activity was determined in COS1 cells transfected with GAL 4-PPAR alpha receptor). Details: not given.
Type: functional, cell-based, COS-1

In order of rising EC50:
1. CCCc1c(OCCCCOc2ccc(OC(C)C(=O)O)cc2)ccc2c(-c3ccccc3)noc12 (centres undefined)  2 nM
2. CCCc1c(OCCCOc2ccc(CC(=O)O)cc2)ccc2c(-c3ccccc3)noc12  3 nM
3. CCCc1c(OCCCSc2ccc(CC(=O)O)cc2Cl)ccc2c(-c3ccccc3)noc12  3 nM
4. CCCc1c(OCCCOc2ccc(OCC(=O)O)cc2)ccc2c(-c3ccccc3)noc12  4 nM
5. CCCc1c(OCCCCOc2ccc(CC(C)(C)C(=O)O)cc2)ccc2c(-c3ccccc3)noc12  4 nM
6. CCCc1c(OCCCCOc2cccc(C(=O)O)c2)ccc2c(-c3ccccc3)noc12  8 nM
7. CCCc1c(OCCCCOc2ccc(CC(=O)O)cc2)ccc2c(-c3ccccc3)noc12  8 nM
8. CCCc1c(OCCOc2ccc(CCCC(=O)O)cc2)ccc2c(-c3ccccc3)noc12  33 nM
9. CCCc1c(OCCCCOc2ccc(C(C)(C)CC(=O)O)cc2)ccc2c(-c3ccccc3)noc12  53 nM
10. CCCc1c(OCCCCOc2cccc(OC(C)(C)C(=O)O)c2)ccc2c(-c3ccccc3)noc12  92 nM

These compounds were tested against T3, Peroxisome proliferator-activated receptor delta. Details: not given.

In order of falling Ki:
1. CCCc1c(OCCCOc2ccccc2CCC(=O)O)ccc2c(-c3ccccc3)noc12  3520 nM
2. CCCc1c(OCCCCOc2ccc(C(C)(C)CC(=O)O)cc2)ccc2c(-c3ccccc3)noc12  529 nM
3. CCCc1c(OCCCCOc2cccc(C(=O)O)c2)ccc2c(-c3ccccc3)noc12  508 nM
4. CCCc1c(OCCCCOc2ccc(CC(C)(C)C(=O)O)cc2)ccc2c(-c3ccccc3)noc12  317 nM
5. CCCc1c(OCCOc2ccc(CCCC(=O)O)cc2)ccc2c(-c3ccccc3)noc12  156 nM
6. CCCc1c(OCCCCOc2ccc(OC(C)C(=O)O)cc2)ccc2c(-c3ccccc3)noc12 (centres undefined)  136 nM
7. CCCc1c(OCCCCOc2cccc(OC(C)(C)C(=O)O)c2)ccc2c(-c3ccccc3)noc12  110 nM
8. CCCc1c(OCCCCOc2ccc(CC(=O)O)cc2)ccc2c(-c3ccccc3)noc12  93 nM
9. CCCc1c(OCCCCOc2cccc(CCC(=O)O)c2)ccc2c(-c3ccccc3)noc12  52 nM
10. CCCc1c(OCCCCOc2ccccc2CC(=O)O)ccc2c(-c3ccccc3)noc12  47 nM
11. CCCc1c(OCCCOc2ccc(/C=C/C(=O)O)cc2)ccc2c(-c3ccccc3)noc12  18 nM
12. CCCc1c(OCCCOc2ccc(CC(=O)O)cc2)ccc2c(-c3ccccc3)noc12  5 nM
13. CCCc1c(OCCCSc2ccc(CC(=O)O)cc2Cl)ccc2c(-c3ccccc3)noc12  3.7 nM
14. CCCc1c(OCCCOc2ccc(OCC(=O)O)cc2)ccc2c(-c3ccccc3)noc12  3.7 nM
